Each structure is given as a SMILES string.

The test concerns IL-2 secretion by human effector memory T cells (TEM). Put plainly: Effector memory T cells IL-2 release assay. The note with it: T-cell; human CD4+ effector memory T cells, CD3/CD28 bead stimulation, 24 h; read-out: CD4TC IL2 IC50. It counts as cell-based. As for the experimental part:
Effector Memory T Cells IL-2 Release Assay
Test compound-mediated inhibition of NFκB signalling in T cells was assessed by quantification of the IL-2 secretion by human effector memory T cells (TEM) upon treatment and stimulation. Human TEM cells were isolated from buffy coats of healthy donors obtained from the French blood bank. First, peripheral blood mononuclear cells (PBMC) were purified from buffy coats diluted 1:1 with DPBS (Gibco, cat #14190-094) by Pancoll (PAN BIOTECH, cat #P04-60500) density gradient centrifugation at 400×g for 20 minutes. TEM cells were further enriched by negative immuno-magnetic cell sorting using a human CD4+ Effector Memory T Cell Isolation Kit (Miltenyi, cat #130-094-125) according to the manufacturer's instructions. Aliquots of 3×10E6 purified TEM cells were kept frozen in Cryo-SFM medium (PromoCell, cat #C-29912) in gas phase nitrogen until used. Cell purity was verified by flow cytometry analysis of 200 000 PFA-fixed cells previously labelled with monoclonal antibodies anti-CD4-PerCP-Cy5.5 (BD Pharmigen, cat #332772), anti-CD8-V500 (BD Biosciences, cat #561617), anti-CD14-Pacific Blue (Biolegend, cat #325616), anti-CD45 RA-FITC (Biolegend, cat #304106) and anti-CCR7-APC (in CD4+ Effector Memory T Cell Isolation Kit, Miltenyi, cat #130-094-125).
TEM cells were resuspended in complete RPMI medium composed of: RPMI 1640 (Gibco, cat #31870-025), 10% heat inactivated fetal bovine serum (Sigma, cat #F7524), 2 mM GlutaMAX (Gibco, cat #35050-038), 1 mM sodium pyruvate 100× (Gibco, cat #11360-039), 1% MEM non-essential amino acids solution (Gibco, cat #11140-035) and 100 U/mL penicillin, 100 μg/mL streptomycin (Sigma-Aldrich, cat #11074440001). 5,000 cells per well were plated onto flat clear bottom 384 well plates (Corning, cat #3770). 5,000 Dynabeads Human T-Activator CD3/CD28 (Gibco, cat #11132D) were added to each well for cell stimulation. Finally, 10 doses of test compound, originally prepared in DMSO by serial semi-log step dilution, were also added to cells in triplicate wells. Final DMSO concentration in wells was 0.1% in a total volume of 100 μL complete medium. Plates were incubated for 24 h at 37° C. in 5% CO2 atmosphere. After incubation, cell suspensions were centrifuged at 400×g and culture supernatants were recovered and stored at −80° C. Cell viability was assessed by flow cytometry after staining the cells with Fixable Viability Dye eFluor 780 (Invitrogen, cat #65-0865-14). IL-2 levels were determined in cell supernatants using an HTRF human IL-2 detection kit (Cisbio, cat #62HIL02PEH). IL-2 data at the different compound doses were fitted to a 4-parameter logistic curve to determine IC50 values, corresponding to the compound concentration leading to 50% reduction of the maximal IL-2 levels observed in each experiment. Viability data were analysed similarly to exclude cytotoxicity as a cause of IL-2 decrease (see Table 1).
`COc1ccc2ncc(Nc3ccc([C@H](N(C)C(=O)C4CCS(=O)(=O)CC4)C(F)(F)F)cc3)c([C@H](C)OC)c2n1` (relative stereo) [CPD0019170, N-methyl-1,1-dioxo-N-[(1S)-2,2,2-trifluoro-1-[4-({6-methoxy-4-[(1 rel S)-1-methoxyethyl]-1,5-naphthyridin-3-yl}amino)phenyl]ethyl]-1λ^6-thiane-4-carboxamide]: the IC50 (usually the point on the concentration scale where inhibition reaches its midpoint) turned out to be 20 nM.
With `CN(C(=O)[C@H]1CC[S@@](=N)(=O)CC1)[C@@H](c1ccc(N2CC(C)(C)Cc3c2cnc2cc(Cl)nn32)cc1)C(F)(F)F` [CPD0073498, (1rel s, 4rel s)-N-[(1S)-1-(4-{4-chloro-12,12-dimethyl-2,3,7,10-tetraazatricyclo[7.4.0.0^2,6]trideca-1(9),3,5,7-tetraen-10-yl}phenyl)-2,2,2-trifluoroethyl]-1-imino-N-methyl-1-oxo-1λ^6-thiane-4-carboxamide], the IC50 was found to be 163 nM.
The same measure for `COc1ccc2ncc(Nc3ccc([C@H](N(C)C(=O)C4CCS(=O)(=O)CC4)C(F)(F)F)cn3)c(C(C)OC)c2n1` (stereo partly drawn) [CPD0019007]: 115 nM; for `COc1ccc2ncc(Nc3ccc([C@H](N(C)C(=O)C4CCS(=O)(=O)CC4)C(F)(F)F)cc3)c([C@H]3CCCO3)c2n1` (relative stereo) [CPD0074043, N-methyl-1,1-dioxo-N-[(1S)-2,2,2-trifluoro-1-[4-[6-methoxy-4-[(2 rel-R)-tetrahydrofuran-2-yl]-1,5-naphthyridin-3-yl]amino]phenyl]ethyl]thiane-4-carboxamide]: 80 nM; for `COc1ccc2ncc(Nc3ccc([C@H](N(C)C(=O)[C@@H]4CCC(=O)N4)C(F)(F)F)cc3)c([C@H](C)OC)c2n1` (relative stereo) [CPD0075580, (2 rel S)-N-methyl-5-oxo-N-[(1S)-2,2,2-trifluoro-1-[4-[[6-methoxy-4-[(1 rel S)-1-methoxyethyl]-1,5-naphthyridin-3-yl]amino]phenyl]ethyl]pyrrolidine-2-carboxamide]: 35 nM.
The same measure for `O=C(CC1CS(=O)(=O)C1)N[C@@H](c1ccc(N2CCCc3c2cnc2cc(Cl)nn32)cc1)C(F)(F)F` [CPD0073535]: 2070 nM; for `COc1ccc2ncc(Nc3ccc([C@H](N(C)C(=O)C4CCN(C(C)=O)CC4)C(F)(F)F)cc3)c([C@H](C)OC)c2n1` (relative stereo) [CPD0074559, 1-acetyl-N-methyl-N-[(1S)-2,2,2-trifluoro-1-[4-[6-methoxy-4-[(1 rel S)-1-methoxyethyl]-1,5-naphthyridin-3-yl]amino]phenyl]ethyl]piperidine-4-carboxamide]: 27 nM.
Under `C[C@H]1CCN(c2ccc([C@H](N(C)C(=O)[C@H]3CC[S@](=N)(=O)CC3)C(F)(F)F)cc2)c2cnc3cc(F)nn3c21` (relative stereo) [CPD0074553, (1rel s, 4rel s)1-imino-N-methyl-1-oxo-N-[(1S)-2,2,2-trifluoro-1-[4-[(13 rel S)-4-fluoro-13-methyl-2,3,7,10-tetrazatricyclo[7.4.0.0^2,6]trideca-1(9),3,5,7-tetraen-10-yl]phenyl]ethyl]thiane-4-carboxamide] stands 162 nM; under `CN(C(=O)C1CCS(=O)(=O)CC1)[C@@H](c1ccc(N2CCC3(CC3)c3c2cnc2cc(Cl)nn32)nc1)C(F)(F)F` [CPD0021660, N-[(1S)-1-(6-{4′-chloro-2′,3′,7′,10′-tetraazaspiro[cyclopropane-1,13′-tricyclo[7.4.0.0^2,6]tridecane]-1′(9′),3′,5′,7′-tetraen-10′-yl}pyridin-3-yl)-2,2,2-trifluoroethyl]-N-methyl-1,1-dioxo-1λ^6-thiane-4-carboxamide], 112 nM; under `COC[C@H]1CCN(c2ccc([C@H](N(C)C(=O)C3CCS(=O)(=O)CC3)C(F)(F)F)cc2)c2cnc3cc(Cl)nn3c21` [CPD0073504, N-[(1S)-1-[4-[(13rel-S)-4-chloro-13-(methoxymethyl)-2,3,7,10-tetrazatricyclo[7.4.0.0^2,6]trideca-1(9),3,5,7-tetraen-10-yl]phenyl]-2,2,2-trifluoro-ethyl]-N-methyl-1,1-dioxo-1λ^6-thiane-4-carboxamide], 88 nM.
Consider `COc1ccc2ncc(Nc3ccc([C@H](N(C)C(=O)C4CCS(=O)(=O)CC4)C(F)(F)F)cn3)c([C@@H](C)OC)c2n1` (relative stereo) [CPD0019006, N-methyl-1,1-dioxo-N-[(1S)-2,2,2-trifluoro-1-[6-({6-methoxy-4-[(1 rel S)-1-methoxyethyl]-1,5-naphthyridin-3-yl}amino)pyridin-3-yl]ethyl]-1λ^6-thiane-4-carboxamide], for which the concentration for half-maximal inhibition (IC50) was 180 nM.
For `COc1ccc2ccc(Nc3ccc([C@H](N(C)C(=O)C4CCS(=O)(=O)CC4)C(F)(F)F)cc3)cc2n1` [CPD0019078, N-methyl-1,1-dioxo-N-[(1S)-2,2,2-trifluoro-1-{4-[(2-methoxyquinolin-7-yl)amino]phenyl}ethyl]-16-thiane-4-carboxamide], the IC50 worked out at 108 nM.
The same measure for `COC[C@@H]1CCN(c2ccc([C@H](N(C)C(=O)C3CCS(=O)(=O)CC3)C(F)(F)F)cc2)c2cnc3cc(Cl)nn3c21` [CPD0073503, N-[(1S)-1-[4-[(13rel-R)-4-chloro-13-(methoxymethyl)-2,3,7,10-tetrazatricyclo[7.4.0.0^2,6]trideca-1(9),3,5,7-tetraen-10-yl]phenyl]-2,2,2-trifluoro-ethyl]-N-methyl-1,1-dioxo-16-thiane-4-carboxamide]: 209 nM; for `CN(C(=O)[C@@H]1CCN(C(=O)CC#N)C1)[C@@H](c1ccc(N2CCCc3c2cnc2cc(Cl)nn32)cc1)C(F)(F)F` [CPD0073190, (3rel-R)-N-[(1S)-1-[4-(4-chloro-2,3,7,10-tetrazatricyclo[7.4.0.0^2,6]trideca-1(9),3,5,7-tetraen-10-yl)phenyl]-2,2,2-trifluoro-ethyl]-1-(2-cyanoacetyl)-N-methyl-pyrrolidine-3-carboxamide]: 239 nM; for `CN(C(=O)C1CCS(=O)(=O)CC1)[C@@H](c1ccc(N2CCC3(CC3)c3c2cnc2cc(Cl)nn32)cc1)C(F)(F)F` [CPD0019590, N-[(1S)-1-(4-{4′-chloro-2′,3′,7′, 10′-tetraazaspiro[cyclopropane-1,13′-tricyclo[7.4.0.0^2,6]tridecane]-1′(9′),3′,5′,7′-tetraen-10′-yl}phenyl)-2,2,2-trifluoroethyl]-N-methyl-1,1-dioxo-1λ^6-thiane-4-carboxamide]: 37 nM.
In the case of `CN(C(=O)C1CCS(=O)(=O)CC1)[C@@H](c1ccc(N2CCCc3c2cnc2cc(Cl)nn32)nc1)C(F)(F)F` [CPD0019212, N-[(1S)-1-(6-{4-chloro-2,3,7,10-tetraazatricyclo[7.4.0.0^2,6]trideca-1(9),3,5,7-tetraen-10-yl}pyridin-3-yl)-2,2,2-trifluoroethyl]-N-methyl-1,1-dioxo-1λ^6-thiane-4-carboxamide], the IC50 was determined as 452 nM.
Under `COc1ccc2ncc(Nc3ccc([C@H](N(C)C(=O)[C@@H]4CNC(=O)C4)C(F)(F)F)cc3)c([C@H](C)OC)c2n1` (relative stereo) [CPD0074550, (3 rel S)-N-methyl-5-oxo-N-[(1S)-2,2,2-trifluoro-1-[4-[6-methoxy-4-[(1 rel S)-1-methoxyethyl]-1,5-naphthyridin-3-yl]amino]phenyl]ethyl]pyrrolidine-3-carboxamide] stands 41 nM; under `COc1ccc2ncc(Nc3ccc([C@H](N(C)C(=O)[C@H]4CC[S@@+]([O-])CC4)C(F)(F)F)cc3)c([C@H](C)OC)c2n1` (relative stereo) [CPD0072935, (1rel-s,4rel-s)-N-methyl-1-oxo-N-[(1S)-2,2,2-trifluoro-1-[4-({6-methoxy-4-[(1 rel-S)-1-methoxyethyl]-1,5-naphthyridin-3-yl}amino)phenyl]ethyl]-1λ^4-thiane-4-carboxamide], 34 nM.

The values above are taken from patent US20250051327A1, “MALT-1 MODULATORS” (EXSCIENTIA AI LIMITED, priority 2020, published 2025).
